Experimental data from patent US8680269B2, “Pesticidal compositions” (Dow AgroSciences, LLC., priority 2009, dated 2014).

What was measured:
[1] = system: corn earworm (CEW; Helicoverpa zea); assay: Insecticidal test for corn earworm, 128-well diet tray assay; assay type: in vivo; conditions: 144 h, 50 μg/cm2 on artificial diet, second instar larvae, six days at 25° C.
Method: (§1) Bioassays on corn earworm (CEW; Helicoverpa zea: Lepidoptera) were conducted using a 128-well diet tray assay. Three to five second instar CEW larvae were placed in each well (3 mL) of the diet tray that had been previously filled with 1 mL of artificial diet to which 50 μg/cm^2 of the test compound (dissolved in 50 μL of 90:10 acetone-water mixture) had been applied (to each of eight wells) and then allowed to dry. Trays were covered with a clear self-adhesive cover, and held at 25° C., 14:10 light-dark for six days. Percent mortality was recorded for the larvae in each well; activity in the eight wells was then averaged.

[2] = system: beet armyworm (BAW; Spodoptera exigua); assay: Insecticidal test for beet armyworm, 128-well diet tray assay; assay type: in vivo; conditions: 144 h, 50 μg/cm2 on artificial diet, second instar larvae, six days at 25° C.
Method: as §1, with “beet armyworm (BAW; Spodoptera exigua:” for “corn earworm (CEW; Helicoverpa zea:”, “BAW” for “CEW”

SMILES	mortality at 50 µg/cm2 [1] [%]	mortality at 50 µg/cm2 [2] [%]
FC(F)(F)Oc1ccc(-n2cnc(-c3ccc(/C=N/NC(=S)Nc4c(Br)cccc4Br)cc3)n2)cc1 [Compound 48]	50 to 100	50 to 100
FC(F)(F)Oc1ccc(-n2cnc(-c3ccc(/C=N/NC(=S)Nc4ccccc4I)cc3)n2)cc1 [Compound 60]	50 to 100	50 to 100
CC(C)c1ccccc1NC(=S)N/N=C/c1ccc(-c2ncn(-c3ccc(OC(F)(F)F)cc3)n2)cc1 [Compound 80]	50 to 100	50 to 100
CCCc1ccccc1NC(=S)N/N=C/c1ccc(-c2ncn(-c3ccc(OC(F)(F)F)cc3)n2)cc1 [Compound 82]	50 to 100	50 to 100
CC(C)(C)c1ccccc1NC(=S)N/N=C/c1ccc(-c2ncn(-c3ccc(OC(F)(F)F)cc3)n2)cc1 [Compound 83]	< 50	< 50
COC(=O)c1ccccc1NC(=S)N/N=C/c1ccc(-c2ncn(-c3ccc(OC(F)(F)F)cc3)n2)cc1 [Compound 84]	< 50	< 50
COc1ccc(NC(=S)N(C)/N=C/c2ccc(-c3ncn(-c4ccc(OC(F)(F)F)cc4)n3)cc2)c(C)c1 [Compound 85]	50 to 100	50 to 100
CCN(/N=C/c1ccc(-c2ncn(-c3ccc(OC(F)(F)F)cc3)n2)cc1)C(=S)Nc1ccc(OC)cc1C [Compound 86]	50 to 100	50 to 100
CCCN(/N=C/c1ccc(-c2ncn(-c3ccc(OC(F)(F)F)cc3)n2)cc1)C(=S)Nc1ccc(OC)cc1C [Compound 87]	< 50	< 50
COc1cc(OC)c(NC(=S)N/N=C/c2ccc(-c3ncn(-c4ccc(OC(F)(F)F)cc4)n3)cc2)c(OC)c1 [Compound 88]	50 to 100	50 to 100
COc1ccc(C)cc1NC(=S)N/N=C/c1ccc(-c2ncn(-c3ccc(OC(F)(F)F)cc3)n2)cc1 [Compound 89]	50 to 100	50 to 100
COc1cccc(NC(=S)N/N=C/c2ccc(-c3ncn(-c4ccc(OC(F)(F)F)cc4)n3)cc2)c1C [Compound 90]	50 to 100	50 to 100
C=C(C)c1ccccc1NC(=S)N/N=C/c1ccc(-c2ncn(-c3ccc(OC(F)(F)F)cc3)n2)cc1 [Compound 91]	50 to 100	50 to 100
Cc1ccc(NC(=S)N/N=C/c2ccc(-c3ncn(-c4ccc(OC(F)(F)F)cc4)n3)cc2)cc1 [Compound 92]	50 to 100	50 to 100
Cc1cc(C)c(NC(=S)N/N=C/c2ccc(-c3ncn(-c4ccc(OC(F)(F)F)cc4)n3)cc2)c(C)c1 [Compound 93]	50 to 100	50 to 100
COc1cccc(NC(=S)N/N=C/c2ccc(-c3ncn(-c4ccc(OC(F)(F)F)cc4)n3)cc2)c1 [Compound 94]	50 to 100	50 to 100
Cc1ccc(NC(=S)N/N=C/c2ccc(-c3ncn(-c4ccc(OC(F)(F)F)cc4)n3)cc2)c(C)c1 [Compound 95]	50 to 100	50 to 100
Cc1ccc(NC(=S)N/N=C/c2ccc(-c3ncn(-c4ccc(OC(F)(F)F)cc4)n3)cc2)c(C(C)C)c1 [Compound 96]	50 to 100	50 to 100
Fc1cc(F)c(NC(=S)N/N=C/c2ccc(-c3ncn(-c4ccc(OC(F)(F)F)cc4)n3)cc2)c(F)c1 [Compound 98]	50 to 100	50 to 100
Cc1ncccc1NC(=S)N/N=C/c1ccc(-c2ncn(-c3ccc(OC(F)(F)F)cc3)n2)cc1 [Compound 99]	50 to 100	50 to 100
CSc1cc(C)c(NC(=S)N/N=C/c2ccc(-c3ncn(-c4ccc(OC(F)(F)F)cc4)n3)cc2)c(C)c1 [Compound 100]	50 to 100	50 to 100
Cc1ccc(Cl)c(C)c1NC(=S)N/N=C/c1ccc(-c2ncn(-c3ccc(OC(F)(F)F)cc3)n2)cc1 [Compound 101]	50 to 100	50 to 100
Cc1ccnc(C)c1NC(=S)N/N=C/c1ccc(-c2ncn(-c3ccc(OC(F)(F)F)cc3)n2)cc1 [Compound 102]	50 to 100	50 to 100
COc1cc(C)cc(C)c1NC(=S)N/N=C/c1ccc(-c2ncn(-c3ccc(OC(F)(F)F)cc3)n2)cc1 [Compound 103]	50 to 100	50 to 100
Cc1cc(C)c(NC(=S)N/N=C/c2ccc(-c3ncn(-c4ccc(OC(F)(F)F)cc4)n3)cc2)c(Cl)c1 [Compound 104]	50 to 100	50 to 100

SMILES	mortality at 50 µg/cm2 [1] [%]	mortality at 50 µg/cm2 [2] [%]
Fc1cccc(Br)c1NC(=S)N/N=C/c1ccc(-c2ncn(-c3ccc(OC(F)(F)F)cc3)n2)cc1 [Compound 105]	50 to 100	50 to 100
Cc1cc(C)c(NC(=S)N/N=C/c2ccc(-c3ncn(-c4ccc(OC(F)(F)F)cc4)n3)cc2)c(C)n1 [Compound 106]	50 to 100	50 to 100
CC(C)c1cccc(C(C)C)c1NC(=S)N/N=C/c1ccc(-c2ncn(-c3ccc(OC(F)(F)F)cc3)n2)cc1 [Compound 107]	50 to 100	50 to 100
COc1cc(F)c(NC(=S)N/N=C/c2ccc(-c3ncn(-c4ccc(OC(F)(F)F)cc4)n3)cc2)c(F)c1 [Compound 108]	50 to 100	50 to 100
CCc1cccc(CC)c1NC(=S)N/N=C(\C)c1ccc(-c2ncn(-c3ccc(OC(F)(F)F)cc3)n2)cc1 [Compound 110]	50 to 100	50 to 100
CCc1cc(OC)ccc1NC(=S)N/N=C/c1ccc(-c2ncn(-c3ccc(OC(F)(F)F)cc3)n2)cc1 [Compound 111]	50 to 100	50 to 100
Cc1cc(F)cc(C)c1NC(=S)N/N=C/c1ccc(-c2ncn(-c3ccc(OC(F)(F)F)cc3)n2)cc1 [Compound 112]	50 to 100	50 to 100
FC(F)(F)Oc1ccc(-n2cnc(-c3ccc(/C=N/NC(=S)Nc4ncc(Cl)cc4Cl)cc3)n2)cc1 [Compound 113]	< 50	< 50
Cc1cc(Cl)cc(C)c1NC(=S)N/N=C/c1ccc(-c2ncn(-c3ccc(OC(F)(F)F)cc3)n2)cc1 [Compound 114]	50 to 100	50 to 100
COc1cc(Cl)c(NC(=S)N/N=C/c2ccc(-c3ncn(-c4ccc(OC(F)(F)F)cc4)n3)cc2)c(Cl)c1 [Compound 115]	50 to 100	50 to 100
COc1cc(C)c(NC(=S)N/N=C/c2ccc(-c3ncn(-c4ccc(OC(F)(F)F)cc4)n3)cc2)c(C)c1 [Compound 116]	50 to 100	50 to 100
COc1cc(C)ccc1NC(=S)N/N=C/c1ccc(-c2ncn(-c3ccc(OC(F)(F)F)cc3)n2)cc1 [Compound 117]	50 to 100	50 to 100
Cc1cc(C)c(NC(=O)N/N=C/c2ccc(-c3ncn(-c4ccc(OC(F)(F)F)cc4)n3)cc2)c(C)c1 [Compound 118]	50 to 100	50 to 100
COc1ccc(NC(=S)N/N=C/c2ccc(-c3ncn(-c4ccc(OC(F)(F)F)cc4)n3)cc2)c(C(C)C)c1 [Compound 121]	50 to 100	50 to 100
COc1ccc(NC(=S)N/N=C/c2ccc(-c3ncn(-c4ccc(OC(F)(F)C(F)(F)F)cc4)n3)cc2)c(C)c1 [Compound 122]	50 to 100	50 to 100
Cc1cc(C)c(NC(=S)N/N=C/c2ccc(-c3ncn(-c4ccc(OC(F)(F)C(F)(F)F)cc4)n3)cc2)c(C)c1 [Compound 123]	50 to 100	50 to 100
CCCCc1ccc(-n2cnc(-c3ccc(/C=N/NC(=S)Nc4c(C)cc(OC)cc4C)cc3)n2)cc1 [Compound 124]	50 to 100	50 to 100
COC(=O)C1CC(c2ccc(/C=N/NC(=S)Nc3c(C)cccc3C)cc2)=NN1c1ccc(OC(F)(F)F)cc1 (stereo not shown) [Compound 130]	50 to 100	50 to 100
COC(=O)C1CC(c2ccc(/C=N/NC(=S)Nc3c(Cl)cccc3Cl)cc2)=NN1c1ccc(OC(F)(F)F)cc1 (stereo not shown) [Compound 131]	50 to 100	50 to 100
Cc1cccc(C)c1NC(=S)N/N=C/c1ccc(-c2ccn(-c3ccc(OC(F)(F)F)cc3)c2)cc1 [Compound 134]	50 to 100	50 to 100
FC(F)(F)Oc1ccc(-n2ccc(-c3ccc(/C=N/NC(=S)Nc4c(Cl)cccc4Cl)cc3)c2)cc1 [Compound 135]	50 to 100	50 to 100
Cc1cccc(C)c1NC(=S)N/N=C/c1ccc(-c2ccn(-c3ccc(OC(F)(F)F)cc3)n2)cc1 [Compound 136]	50 to 100	50 to 100
FC(F)(F)Oc1ccc(-n2ccc(-c3ccc(/C=N/NC(=S)Nc4c(Cl)cccc4Cl)cc3)n2)cc1 [Compound 137]	50 to 100	50 to 100
Cc1cccc(C)c1NC(=S)N/N=C/c1ccc(-c2cnn(-c3ccc(OC(F)(F)F)cc3)c2)cc1 [Compound 138]	50 to 100	50 to 100
C/C(=N\NC(=S)Nc1c(C)cccc1C)c1ccc(-c2cnn(-c3ccc(OC(F)(F)F)cc3)c2)cc1 [Compound 139]	50 to 100	50 to 100
